One assay deals with GP2D. The assay is described as follows: Cell proliferation inhibition, GP2D (CellTiter-Glo 3D, 7 days). The format is cell-based. As for the experimental part: (§1) • (a) Resuscitating cells in T75 cell culture flask: • (b) When the cell confluence reaches 80-90%, subculturing the cells.
(§2) The diluted test compound was added to a 384-well cell culture plate with a nanoliter pipetting system, and duplicate wells were set up. An equal volume of culture medium was added to the positive control group; and an equal volume of DMSO was added to the negative control group, then centrifugation was conducted at 1000 rpm for 1 min at room temperature.
(§3) Cells were inoculated into a) 384-well culture plate, with an equal volume of cells added to the negative control group, and only an equal volume of culture medium added to the positive control group. The plate was centrifuged at 1000 rpm for 1 min at room temperature, and the final DMSO concentration of the compound was 0.5% at last. The plate was placed in a 37° C., 5% CO2 constant temperature incubator for 7 days.
(§4) 20 μL/well of CellTiter-Glo® 3D to b) was added to 384-well cell culture plate, and the plate was shook at 320 rpm for 20 min in the dark, and incubated at room temperature in the dark for 2 hrs.
(§5) The luminescence value was read using an Envision multi-functional microplate reader.
(§6) The inhibition rate (IR) of the test compound was calculated using the following formula: IR (%)=(1−(RLU compound−RLU blank control)/(RLU meidum control−RLU blank control))*100%. The inhibition rates of different concentrations of compounds were calculated in Excel, and then the inhibition curves were plotted and the related parameters (including the minimum inhibition rate, maximum inhibition rate and IC50) were calculated using GraphPad Prism software.

The next assay concerns AsPC-1. The assay is described as follows: Cell proliferation inhibition, AsPC-1 (CellTiter-Glo 3D, 7 days). In kind it is cell-based. Conditions: AsPC-1, 7 days. As for the experimental part: as §1, §2, §3, §4, §5, §6

This passage reports IC50 results from patent publication US20250206758A1, “SUBSTITUTED BRIDGED RING INHIBITOR, PREPARATION METHOD THEREFOR AND APPLICATION THEREOF” (SUZHOU ZELGEN BIOPHARMACEUTICALS CO., LTD., priority 2022, published 2025).

Where two headings read alike, the source gives them in different places.

On to `C#Cc1c(F)ccc2cc(O)cc(-c3ncc4c(N5C[C@H]6CC[C@@H](C5)N6)nc(OC[C@]56CCCN5C[C@]5(CC5(F)F)C6)nc4c3F)c12` [Example 16B-2, 4-(4-((1R,5S)-3,8-diazabicyclo[3.2.1]octan-3-yl)-2-(((1R,7a′R)-2,2-difluorodihydro-1′H,3′H-spiro[cyclopropan-1,2′-pyrrolizin]-7a′(5′H)-yl)methoxy)-8-fluoropyridino[4,3-d]pyrimidin-7-yl)-5-ethynyl-6-fluoronaphthalen-2-ol], for which the IC50 was determined as 1.55 nM with GP2D (168 h) and 9.22 nM with AsPC-1 (Homo sapiens, ASPC1, 168 h).
`CCc1c(F)ccc2cc(O)cc(-c3ncc4c(N5CC6CCC(C5)N6)nc(OC[C@@]56CCCN5C[C@@]5(CC5(F)F)C6)nc4c3F)c12` [Example 17A]: the half-inhibitory concentration (IC50) is 0.26 nM in the assay with GP2D (168 h) and 1.07 nM with AsPC-1 (Homo sapiens, ASPC1, 168 h).
Take `CCc1c(F)ccc2cc(O)cc(-c3ncc4c(N5CC6CCC(C5)N6)nc(OC[C@]56CCCN5C[C@]5(CC5(F)F)C6)nc4c3F)c12` [Example 17B]: the IC50 in the assay with GP2D (168 h) came to 1.15 nM; with AsPC-1 (Homo sapiens, ASPC1, 168 h), 7.84 nM.
The corresponding values for `Cc1cc(N)nc(-c2ncc3c(N4CC5CCC(C4)N5)nc(OC[C@@]45CCCN4C[C@@]4(CC4(F)F)C5)nc3c2F)c1C(F)(F)F` [Example 18, 6-(4-((1R,5S)-3,8-diazabicyclo[3.2.1]octan-3-yl)-2-(((trans)-2,2-difluorodihydro-1′H,3′H-spiro[cyclopropan-1,2′-pyrrolizin]-7a′(5′H)-yl)methoxy)-8-fluoropyridino[4,3d]pyrimidin-7-yl)-4-methyl-5-(trifluoromethyl)pyridin-2-amine] are 9.83 nM and 307 nM.
`C#Cc1c(F)ccc2cc(O)cc(-c3ncc4c(N5C[C@H]6CC[C@@](C)(C5)N6)nc(OC[C@@]56CCCN5C[C@@]5(CC5(F)F)C6)nc4c3F)c12` [Example 20A, 4-(2-(((1S,7a'S)-2,2-difluorodihydro-1′H,3′H-spiro[cyclopropan-1,2′-pyrrolizin]-7a′(5′H)-yl)methoxy)-8-fluoro-4-((1S,5R)-1-methyl-3,8-diazabicyclo[3.2.1]octan-3-yl)pyridino[4,3-d]pyrimidin-7-yl)-5-ethynyl-6-fluoronaphthol-2-ol]: the half-inhibitory concentration (IC50) with GP2D came to 0.44 nM; in the assay with AsPC-1 it was 4.11 nM.
With `C#Cc1c(F)ccc2cc(O)cc(-c3ncc4c(N5C[C@@H]6CC[C@](C)(C5)N6)nc(OC[C@@]56CCCN5C[C@@]5(CC5(F)F)C6)nc4c3F)c12` [Example 20B, 4-(2-(((1S,7a'S)-2,2-difluorodihydro-1′H,3′H-spiro[cyclopropan-1,2′-pyrrolizin]-7a′(5′H)-yl)methoxy)-8-fluoro-4-((1R,5S)-1-methyl-3,8-diazabicyclo[3.2.1]octan-3-yl)pyridino[4,3-d]pyrimidin-7-yl)-5-ethynyl-6-fluoronaphthol-2-ol], the IC50 is 0.58 nM with GP2D and 4.86 nM in the assay on AsPC-1.
On to `Cc1c(F)cc2[nH]ncc2c1-c1ncc2c(N3C[C@H]4CC[C@@H](C3)N4)nc(OC[C@@]34CCCN3C[C@@]3(CC3(F)F)C4)nc2c1F` [Example 22, (1S,7a'S)-7a′-(((4-((1R,5S)-3,8-diazabicyclo[3.2.1]octan-3-yl)-8-fluoro-7-(6-fluoro-5-methyl-1H-indazol-4-yl)pyridino[4,3-d]pyrimidin-2-yl)oxy)methyl)-2,2-difluorodihydro-1′H,3′H-spiro[cyclopropan-1,2′-pyrrolizin]], for which the concentration for half-maximal inhibition (IC50) in the assay on GP2D (168 h) is more than 100 nM; with AsPC-1 (Homo sapiens, ASPC1, 168 h) it was more than 1000 nM.
The corresponding values for `Nc1nc2c(-c3ncc4c(N5C[C@H]6CC[C@@H](C5)N6)nc(OC[C@@]56CCCN5C[C@@]5(CC5(F)F)C6)nc4c3F)ccc(F)c2s1` [Example 23, 4-(4-((1R,5S)-3,8-diazabicyclo[3.2.1]octan-3-yl)-2-(((1S,7a'S)-2,2-difluorodihydro-1′H,3′H-spiro[cyclopropan-1,2′-pyrrolizin]-7a′(5′H)-yl)methoxy)-8-fluoropyridino[4,3-d]pyrimidin-7-yl)-7-fluorobenzo[d]thiazol-2-amine] are more than 100 nM and more than 1000 nM.
The corresponding values for `Nc1c(Cl)cc(Cl)c(F)c1-c1ncc2c(N3C[C@H]4CC[C@@H](C3)N4)nc(OC[C@@]34CCCN3C[C@@]3(CC3(F)F)C4)nc2c1F` [Example 25, 2-(4-((1R,5S)-3,8-diazabicyclo[3.2.1]octan-3-yl)-2-(((1S,7a'S)-2,2-difluorodihydro-1′H,3′H-spiro[cyclopropan-1,2′-pyrrolizin]-7a′(5′H)-yl)methoxy)-8-fluoropyridino[4,3-d]pyrimidin-7-yl)-4,6-dichloro-3-fluoroaniline] are more than 100 nM and more than 1000 nM.
The matching figures for `C#Cc1c(F)ccc2cc(O)cc(-c3ncc4c(N5CCC6CCC(C5)N6)nc(OC[C@@]56CCCN5C[C@@]5(CC5(F)F)C6)nc4c3F)c12` (stereo partly drawn) [Example 28, 4-(4-(3,9-diazabicyclo[4.2.1]nonan-3-yl)-2-(((1S,7a'S)-2,2-difluorodihydro-1′H,3′H-spiro[cyclopropan-1,2′-pyrrolizin]-7a′(5′H)-yl)methoxy)-8-fluoropyridino[4,3-d]pyrimidin-7-yl)-5-ethynyl-6-fluoronaphthalen-2-ol]: 19.8 nM and 188 nM.
Consider `C#Cc1c(F)ccc2cc(O)cc(-c3ncc4c(N5CCCC(C)(N)C5)nc(OC[C@@]56CCCN5C[C@@]5(CC5(F)F)C6)nc4c3F)c12` (stereo partly drawn) [Example 29, 4-(4-(3-amino-3-methylpiperidin-1-yl)-2-(((1S,7a'S)-2,2-difluorodihydro-1′H,3′H-spiro[cyclopropan-1,2′-pyrrolizin]-7a′(5′H)-yl)methoxy)-8-fluoropyridino[4,3-d]pyrimidin-7-yl)-5-ethynyl-6-fluoronaphthalen-2-ol], for which the half-maximal inhibitory concentration (IC50) came to 17.7 nM in the assay with GP2D (168 h) and 180 nM in the assay on AsPC-1 (Homo sapiens, ASPC1, 168 h).
Regarding `COc1c(-c2c(F)c(N)cc(C)c2C(F)(F)F)ncc2c(N3C[C@H]4CC[C@@H](C3)N4)nc(OC[C@@]34CCCN3C[C@@]3(CC3(F)F)C4)nc12` [Example 30, 3-(4-((1R,5S)-3,8-diazabicyclo[3.2.1]octan-3-yl)-2-(((1S,7a'S)-2,2-difluorodihydro-1′H,3′H-spiro[cyclopropan-1,2′-pyrrolizin]-7a′(5′H)-yl)methoxy)-8-methoxypyridino[4,3-d]pyrimidin-7-yl)-2-fluoro-5-methyl-4-(trifluoromethyl)aniline], the IC50 is more than 100 nM in the assay on GP2D (168 h) and more than 1000 nM with AsPC-1 (Homo sapiens, ASPC1, 168 h).
The matching figures for `COc1c(-c2cc(N)cc(Cl)c2C(F)(F)F)ncc2c(N3C[C@H]4CC[C@@H](C3)N4)nc(OC[C@@]34CCCN3C[C@@]3(CC3(F)F)C4)nc12` [Example 31, 3-(4-((1R,5S)-3,8-diazabicyclo[3.2.1]octan-3-yl)-2-(((1S,7a'S)-2,2-difluorodihydro-1′H,3′H-spiro[cyclopropan-1,2′-pyrrolizin]-7a′(5′H)-yl)methoxy)-8-methoxypyridino[4,3-d]pyrimidin-7-yl)-5-chloro-4-(trifluoromethyl)aniline]: 24.3 nM and 259 nM.
The matching figures for `N#Cc1c(N)sc2cc(F)cc(-c3ncc4c(N5C[C@H]6CC[C@@H](C5)N6)nc(OC[C@@]56CCCN5C[C@@]5(CC5(F)F)C6)nc4c3F)c12` [Example 32, 4-(4-((1R,5S)-3,8-diazabicyclo[3.2.1]octan-3-yl)-2-(((1S,7a'S)-2,2-difluorodihydro-1′H,3′H-spiro[cyclopropan-1,2′-pyrrolizin]-7a′(5′H)-yl)methoxy)-8-fluoropyridino[4,3-d]pyrimidin-7-yl)-2-amino-6-fluorobenzo[b]thiophen-3-carbonitrile]: 21 nM and 483 nM.
